Measurements: US9492510B2, “Composition and method for inhibiting tumor cell growth” (St. Jude Children's Research Hospital, priority 2006, dated 2016)
Entries after “also recorded” stand apart in the source; their conditions may differ. Where two headings read alike, the source gives them in different places.

How the values were obtained:
topoisomerase I = settings: cited from earlier work
U373MG cells [1] = assay: Growth inhibition by CPT-11 of U373MG cells; assay type: cell-based, human
Procedure: Experiments were also performed in human brain tumor cells (U373MG) where the growth of the cells was examined in cells that expressed the mutant form of the human CE enzyme.
(§1) Experiments were also performed to determine whether cells expressing a secreted form of hCElm6 (SEQ ID NO:16) produced media that had CE activity.
(§2) Transfection of Cell Lines. Transient transfection of Cos7 cells was achieved by electroporation (Potter, et al. 1998. Cancer Res. 52:2646-2651). For the generation of stable cell lines, cDNAs were ligated into pIRESneo and U373MG cells were electroporated under similar conditions. Transfectants were selected in media containing 400 μg/ml of G418. Since the CE cDNA was linked via an internal ribosome entry sequence (IRES) to the neomycin gene, selection of individual G418-resistant clones was not necessary.
(§3) Construction of Adenovirus. Replication-deficient adenovirus expressing hCElm6 or rCE were constructed using standard protocols (Wierdl, et al. 2001. Cancer Res. 61:5078-5082). Multiplicity of infection (moi) was defined as the number of plaques produced in 1×10^6 293 cells in a total volume of 1 ml of media after incubation with virus for 1 hour.
(§4) Growth Inhibition Assays.

[2] = target: T1, hCE1 variant hCE1m6 (hCE1mut6; L362M, M363L, K459R, F448Y, Q449R, L358I, S364G, Q362 insertion), SEQ ID NO:3 (Homo sapiens, UniProt P23141, F449Y/K460R/L358I/L363M/M364L/Q450R/S365G); assay: Kinetics of CPT-11 hydrolysis by purified hCE1m6; assay type: biochemical
T1 sequence (P23141 18-567 L358I/L363M/M364L/S365G/F449Y/Q450R/K460R): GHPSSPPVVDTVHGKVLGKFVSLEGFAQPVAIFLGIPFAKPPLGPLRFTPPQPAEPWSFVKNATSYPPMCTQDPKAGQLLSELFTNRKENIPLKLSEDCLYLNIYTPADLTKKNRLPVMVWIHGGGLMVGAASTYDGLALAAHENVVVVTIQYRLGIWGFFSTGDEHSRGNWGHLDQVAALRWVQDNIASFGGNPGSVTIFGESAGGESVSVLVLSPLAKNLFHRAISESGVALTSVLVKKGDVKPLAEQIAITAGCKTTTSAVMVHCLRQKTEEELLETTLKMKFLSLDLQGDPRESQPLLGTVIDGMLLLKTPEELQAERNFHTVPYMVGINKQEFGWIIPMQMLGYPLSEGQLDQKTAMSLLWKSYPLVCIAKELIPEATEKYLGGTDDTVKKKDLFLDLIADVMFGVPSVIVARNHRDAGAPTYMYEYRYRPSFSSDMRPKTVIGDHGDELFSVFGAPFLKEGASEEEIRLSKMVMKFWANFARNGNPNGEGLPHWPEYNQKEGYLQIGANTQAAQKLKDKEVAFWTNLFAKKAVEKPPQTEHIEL
Text: (§5) These experiments determined the Km, Vmax, kcat and kcat/Km values for the different enzymes.
(§6) Protein Purification. […] For hiCE, an alternative purification procedure was developed using DEAE chromatography and elution with a pH/salt gradient.
(§7) Determination of Kinetic Parameters for Substrate Hydrolysis.

[3] = target: T2, hiCE (human intestinal carboxylesterase) (Homo sapiens, UniProt O00748); assay: Kinetics of CPT-11 hydrolysis by purified hiCE; assay type: biochemical
T2 sequence (O00748 27-559): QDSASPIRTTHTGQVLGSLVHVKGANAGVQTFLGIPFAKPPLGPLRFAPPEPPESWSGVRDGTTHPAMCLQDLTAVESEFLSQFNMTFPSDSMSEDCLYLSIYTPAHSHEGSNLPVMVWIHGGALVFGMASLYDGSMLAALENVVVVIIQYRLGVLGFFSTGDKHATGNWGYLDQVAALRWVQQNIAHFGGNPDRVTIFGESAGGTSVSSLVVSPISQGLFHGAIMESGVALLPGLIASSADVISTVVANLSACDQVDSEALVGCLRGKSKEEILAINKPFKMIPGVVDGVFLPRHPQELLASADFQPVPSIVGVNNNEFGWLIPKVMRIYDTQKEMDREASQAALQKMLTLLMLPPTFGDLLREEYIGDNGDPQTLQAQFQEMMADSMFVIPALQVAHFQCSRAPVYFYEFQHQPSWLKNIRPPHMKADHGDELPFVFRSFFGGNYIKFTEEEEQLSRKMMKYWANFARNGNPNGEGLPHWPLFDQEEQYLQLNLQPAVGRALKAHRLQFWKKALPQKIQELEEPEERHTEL
Text: as §5, §6, §7

COS7 cells = assay: Growth inhibition of transiently transfected Cos7 cells by CPT-11; assay type: cell-based, African green monkey; settings: Chlorocebus sabaeus
Procedure: as §2, §4

U373MG cells [4] = assay: Growth inhibition of U373MG cells expressing intracellular or secreted hCE1mut6 by CPT-11; assay type: cell-based; settings: Homo sapiens, U373 MG, read-out: IC50 for CPT-11
Procedure: as §1, §4

Rh30 cells = assay: Growth inhibition of adenovirus-transduced Rh30 cells by CPT-11; assay type: cell-based; settings: Homo sapiens
Procedure: as §3, §4

SK-N-As cells = assay: Growth inhibition of adenovirus-transduced SK-N-As cells by CPT-11; assay type: cell-based; settings: Homo sapiens
Procedure: as §3, §4

[5] = test system: hCE1 (human liver carboxylesterase), wild type, SEQ ID NO:1; settings: CPT-11 hydrolysis; cited from earlier work
[6] = test system: rCE (rabbit liver carboxylesterase), wild type, SEQ ID NO:2; settings: CPT-11 hydrolysis; cited from earlier work
[7] = CPT-11 administered to humans; cited from earlier work
[8] = mice, within the first hour of dosing; cited from earlier work
[9] = patients; cited from earlier work
[10] = Kinetic parameters for CPT-11 hydrolysis by purified recombinant CEs; assay type: biochemical; settings: hCE1 and rCE values rest on cited data
Procedure: To directly compare the abilities of the mammalian CEs to hydrolyze CPT-11, a series of biochemical studies were carried out using the purified proteins in vitro. These experiments determined the Km, Vmax, kcat and kcat/Km values for the different enzymes.
as §6, §7

[11] = In vitro stability of purified CE stored at room temperature in 50 mM Hepes; assay type: physicochemical; settings: purified protein in 50 mM Hepes pH7.4, room temperature
Procedure: Enzymes were aliquoted in 50 mM Hepes, stored at 20° C. and CE activities were determined at various time intervals, up to 11 weeks. Data are expressed as the amount of active CE remaining as compared to day 0.
Therefore, the loss of CE activity was evaluated in preparations of these proteins, as well as hCElm6 that had been stored at room temperature. In these studies, purified protein was aliquoted in 50 mM Hepes pH7.4, and enzyme activity was determined over a period of 12 weeks.

[12] = CE activity (o-NPA) in human tumor cell lines expressing CE after plasmid transfection or adenoviral transduction; assay type: biochemical
Text: […], it was observed that expression of hiCE following plasmid-mediated transfection was frequently lower than that seen with rCE or […]. […] Since expression of the transgene from this expression vector is co-regulated with the neo gene via an IRES sequence, selection with similar concentrations of G418 should result in cell lines that express approximately equal levels of recombinant protein. However, the average levels of CE activity in U373hiCE, U373hCE1 and U373hCE1m6 cells were 287.6±76.6, 1077.1±77.5, and 466.5±52.6 nmoles/min/mg, respectively.
Carboxylesterase Assays. CE activity was determined using a spectrophotometric assay with 3 mM o-nitrophenyl acetate (o-NPA) as a substrate (Potter, et al. 1998. Cancer Res. 52:2646-2651; Wierdl, et al. 2001. Cancer Res. 61:5078-5082; Beaufay, et al. 1974. J. Cell Biol. 61:188-200). Data were expressed as nmoles o-nitrophenol produced per minute per milligram of protein. To correct for differences in CE expression within transfected cells, the enzyme activity values were corrected for the level of immuno-reactive CE protein as determined from western analyses.
as §2, with “necessary. Routinely, whole cell sonicates obtained from these pooled populations of cells contained 200-500 nmoles/min/mg of CE activity.” for “necessary.”
as §3

[13] = substrate: CCc1c2c(nc3ccc(OC(=O)N4CCC(N5CCCCC5)CC4)cc13)-c1cc3c(c(=O)n1C2)COC(=O)[C@]3(O)CC; assay: purified protein, by the assay type; settings: other: CPT-11 hydrolysis, hiCE

In the case of `CCc1c2c(nc3ccc(O)cc13)-c1cc3c(c(=O)n1C2)COC(=O)[C@]3(O)CC` [SN-38, 7-ethyl-10-hydroxy-camptothecin], the “inhibition of topoisomerase I” value (topoisomerase I) is listed as “potent inhibitor of topoisomerase I”.

Work on `CCc1c2c(nc3ccc(OC(=O)N4CCC(N5CCCCC5)CC4)cc13)-c1cc3c(c(=O)n1C2)COC(=O)[C@]3(O)CC` [CPT-11, 7-ethyl-10-[4-(1-piperidino)-1-piperidino]carbonyloxycamptothecin] yielded an IC50 (U373MG cells [1]; Homo sapiens, U373 MG, read-out: CPT-11 IC50, U373IRES cells (pIRESneo, no enzyme expressed)) of 24 µM, a Vmax [2] of 2.11 ± 0.06 nmol/min/mg and a Vmax [3] of 1.49 ± 0.04 nmol/min/mg. For the same molecule, the IC50 (COS7 cells; COS-7, read-out: IC50 (growth inhibition), cells expressing hCE1mut6) was 12 to 20 µM, the IC50 (COS7 cells; COS-7, read-out: IC50 (growth inhibition), cells expressing rCE) was 12 to 20 µM and the IC50 (COS7 cells; COS-7, read-out: IC50 (growth inhibition), cells expressing wild-type hCE1) was 77.1 µM. It also gave an IC50 (U373MG cells [4]) of 7.08 µM, an IC50 (Rh30 cells; Rh30, read-out: CPT-11 IC50, AdCMVhCE1m6, hCE1m6) of 2 µM and an IC50 (Rh30 cells; Rh30, read-out: CPT-11 IC50, AdCMVrCE, rCE) of 3.4 µM. The IC50 (Rh30 cells; Rh30, read-out: CPT-11 IC50, AdVC, no enzyme) was 64.3 µM, the IC50 (Rh30 cells; Rh30, read-out: IC50, Rh30, transduced cells) was 0.0006 µM and the IC50 (SK-N-As cells; read-out: CPT-11 IC50, AdCMVhCE1m6, hCE1m6) was 0.5 µM. It also gave an IC50 (SK-N-As cells; read-out: CPT-11 IC50, AdCMVrCE, rCE) of 0.6 µM, an IC50 (SK-N-As cells; read-out: CPT-11 IC50, AdVC, no enzyme) of 31.7 µM and an IC50 (SK-N-As cells; read-out: IC50, SK-N-As, transduced cells) of 0.002 µM. The Km [5] was 82.8 ± 9.6 µM, the Vmax [5] was 0.36 ± 0.017 nmol/min/mg and the Km [6] was 6.2 ± 0.63 µM. For the same molecule, the Vmax [6] was 18 ± 0.9 nmol/min/mg, the “fraction of CPT-11 converted to SN-38” value [7] was “less than 5%” and the “fraction of CPT-11 hydrolyzed to SN-38” value [8] was “greater than 50%”. The dose-limiting toxicity [9] was “myelosuppression and secretory diarrhea limit the amount of prodrug; also recorded: myelosuppression and secretory diarrhea limit the amount of drug”.

B1: hiCE (human intestinal carboxylesterase) (Homo sapiens) (protein)
chain: QDSASPIRTTHTGQVLGSLVHVKGANAGVQTFLGIPFAKPPLGPLRFAPPEPPESWSGVRDGTTHPAMCLQDLTAVESEFLSQFNMTFPSDSMSEDCLYLSIYTPAHSHEGSNLPVMVWIHGGALVFGMASLYDGSMLAALENVVVVIIQYRLGVLGFFSTGDKHATGNWGYLDQVAALRWVQQNIAHFGGNPDRVTIFGESAGGTSVSSLVVSPISQGLFHGAIMESGVALLPGLIASSADVISTVVANLSACDQVDSEALVGCLRGKSKEEILAINKPFKMIPGVVDGVFLPRHPQELLASADFQPVPSIVGVNNNEFGWLIPKVMRIYDTQKEMDREASQAALQKMLTLLMLPPTFGDLLREEYIGDNGDPQTLQAQFQEMMADSMFVIPALQVAHFQCSRAPVYFYEFQHQPSWLKNIRPPHMKADHGDELPFVFRSFFGGNYIKFTEEEEQLSRKMMKYWANFARNGNPNGEGLPHWPLFDQEEQYLQLNLQPAVGRALKAHRLQFWKKALPQKIQELEEPEERHTEL
In the case of B1, the “Ratio kcat/Km as compared to hCE1” value [10] is reported as 91, the “time to loss of 50% of CE activity” value [11] is reported as ~30 days and the “average levels of CE activity” value ([12]; U373MG cells stably transfected with pIRESneo constructs, monitored over an extended time period) is reported as 287.6 ± 76.6 nmol/min/mg. The CE Activity ([12]; ± SD, U373MG cells stably transfected (pIRESneo) expressing the enzyme) was 408.2 ± 5.6 nmol/min/mg, the “sensitization of cells to CPT-11” value (U373MG cells [1]; U373MG cells expressing the labelled enzyme) was “sensitized” and the Km [13] was 3.35 ± 0.34 µM.
